The results in this text go back to patent publication US11168093B2, “Thienopyridine inhibitors of RIPK2” (Celgene Corporation, priority 2018, dated 2021).

Structures are written as SMILES.

RIPK2 enzyme, sequence (O43353 whole entry): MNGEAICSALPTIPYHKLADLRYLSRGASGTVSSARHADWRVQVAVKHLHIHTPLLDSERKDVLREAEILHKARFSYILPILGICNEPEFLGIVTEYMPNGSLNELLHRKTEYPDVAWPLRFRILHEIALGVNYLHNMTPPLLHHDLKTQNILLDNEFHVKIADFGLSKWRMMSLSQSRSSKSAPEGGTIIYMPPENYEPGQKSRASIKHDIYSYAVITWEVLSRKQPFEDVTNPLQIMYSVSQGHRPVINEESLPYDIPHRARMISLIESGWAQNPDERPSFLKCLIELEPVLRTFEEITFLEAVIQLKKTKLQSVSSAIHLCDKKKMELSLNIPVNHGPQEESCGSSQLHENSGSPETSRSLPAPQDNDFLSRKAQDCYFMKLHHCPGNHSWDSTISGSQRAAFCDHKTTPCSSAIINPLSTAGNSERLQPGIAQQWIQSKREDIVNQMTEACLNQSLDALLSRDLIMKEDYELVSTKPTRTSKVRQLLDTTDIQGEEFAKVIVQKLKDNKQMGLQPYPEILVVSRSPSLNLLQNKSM

This assay concerns the target RIPK2 enzyme (Homo sapiens (Human), UniProt O43353). As to the kind of experiment: RIPK2 inhibition assay, TR-FRET LanthaScreen Tracer 199 screening assay. It is filed as binding. The settings on record: 5 nM RIPK2 enzyme, Tracer 199 at 50 nM, Eu-anti-His Antibody at 2 nM, 1 hour incubation. In a few lines: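 TR-FRET binding displacement: 5 nM RIPK2, 50 nM Tracer 199, 2 nM Eu-anti-His antibody in 1× kinase reaction buffer, 1 h, read at room temperature (340 ex/665 and 615 em). No-enzyme background subtracted; percent inhibition versus uninhibited controls, IC50 from unconstrained variable-slope fit.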
A general note: TR-FRET usually uses a lanthanide donor and a delayed reading to cut background.
For `C[C@@H]1[C@H](c2cc3c(Nc4ccc5scnc5c4)ccnc3s2)CCCN1C` [Example 4c, N-(2-(1,2-dimethylpiperidin-3-yl)thieno[2,3-b]pyridin-4-yl)benzo[d]thiazol-5-amine], the IC50 was no more than 10 nM. The value for `CC1C(c2cc3c(Nc4ccc5scnc5c4)ccnc3s2)CCN1C` (stereo not drawn) [Example 28, N-(2-(1,2-dimethylpyrrolidin-3-yl)thieno[2,3-b]pyridin-4-yl)benzo[d]thiazol-5-amine] was no more than 10 nM. The value for `Fc1cc2scnc2c(F)c1Nc1ccnc2sc(C3CCNC34CCOC4)cc12` (stereo not drawn) [Example 99, N-(2-(7-oxa-1-azaspiro[4.4]nonan-4-yl)thieno[2,3-b]pyridin-4-yl)-4,6-difluorobenzo[d]thiazol-5-amine] was 10 to 20 nM; that for `CC1NCCCC1c1cc2c(Nc3ccc4scnc4c3)c(F)cnc2s1` (single isomer, unassigned) [Example 119b, N-(5-fluoro-2-(2-methylpiperidin-3-yl)thieno[2,3-b]pyridin-4-yl)benzo[d]thiazol-5-amine] was no more than 10 nM; that for `CN1CCC(c2cc3c(Nc4c(F)cc5scnc5c4F)ccnc3s2)C12CCOC2` (stereo not drawn) [Example 100, 4,6-difluoro-N-(2-(1-methyl-7-oxa-1-azaspiro[4.4]nonan-4-yl)thieno[2,3-b]pyridin-4-yl)benzo[d]thiazol-5-amine] was 10 to 20 nM.

As to `CC1C(c2cc3c(Nc4c(F)cc5scnc5c4F)c(F)cnc3s2)CCCN1C` (single isomer, unassigned) [Example 127a], the half-inhibitory concentration (IC50) lay within 20 to 50 nM. `CC1(C)C(c2cc3c(Nc4ccc5scnc5c4F)ccnc3s2)CCN1CCO` (stereo not drawn) [Example 92, 2-(3-(4-((4-fluorobenzo[d]thiazol-5-yl)amino)thieno[2,3-b]pyridin-2-yl)-2,2-dimethylpyrrolidin-1-yl)ethan-1-ol] displayed an IC50 of no more than 10 nM. In the case of `CCN1CCC[C@@H](c2cc3c(Nc4c(F)cc5scnc5c4F)ccnc3s2)[C@H]1C` [Example 73b, N-[2-((2R,3R)1-ethyl-2-methyl-3-piperidyl)thieno[2,3-b]pyridin-4-yl]-4,6-difluoro-1,3-benzothiazol-5-amine], the IC50 was no more than 10 nM. Under `CCN1CCC[C@H](c2cc3c(Nc4cc5ncsc5cc4F)ccnc3s2)[C@@H]1C` [Example 54b, N-(2-(1-ethyl-2-methylpiperidin-3-yl)thieno[2,3-b]pyridin-4-yl)-6-fluorobenzo[d]thiazol-5-amine] stands 20 to 50 nM; under `CC1NCCCCC1c1cc2c(Nc3c(F)cc4scnc4c3F)ccnc2s1` (stereo not drawn) [Example 118b, 4,6-difluoro-N-(2-(2-methylazepan-3-yl)thieno[2,3-b]pyridin-4-yl)benzo[d]thiazol-5-amine], no more than 10 nM. Turning to `CC1(C)C(c2cc3c(Nc4cc5ncsc5cc4F)ccnc3s2)CCN1CCO` (stereo not drawn) [Example 80, 2-(3-(4-((6-fluorobenzo[d]thiazol-5-yl)amino)thieno[2,3-b]pyridin-2-yl)-2,2-dimethyl-pyrrolidin-1-yl)ethan-1-ol], the 50% inhibitory concentration (IC50) lay in the range of 20 to 50 nM. The compound `C[C@@H]1NCCC[C@H]1c1cc2c(Nc3ccc4scnc4c3F)ccnc2s1` [Example 57a, 4-fluoro-N-(2-((2S,3R)-2-methylpiperidin-3-yl)thieno-[2,3-b]pyridin-4-yl)benzo[d]thiazol-5-amine] showed a half-inhibitory concentration (IC50) of 10 to 20 nM. As to `CC1C(c2cc3c(Nc4c(F)cc5scnc5c4F)c(F)cnc3s2)CCCN1C` (stereo not drawn) [Example 127b], the IC50 is no more than 10 nM. The value for `CC1NCCCCC1c1cc2c(Nc3c(F)cc4scnc4c3F)ccnc2s1` (single isomer, unassigned) [Example 118d, 4,6-difluoro-N-(2-(2-methylazepan-3-yl)thieno[2,3-b]pyridin-4-yl)benzo[d]thiazol-5-amine] was 10 to 20 nM; that for `CC1C(c2cc3c(Nc4ccc5scnc5c4)ccnc3s2)=CCCN1C` (stereo not drawn) [Example 2, N-(2-(1,2-dimethyl-1,2,5,6-tetrahydropyridin-3-yl)thieno[2,3-b]pyridin-4-yl)benzo[d]thiazol-5-amine] was no more than 10 nM.

Usually IC50 stands for the concentration that inhibits the measured activity by half.
